Data published in US20080311657A1, “Killing Human Lymphoma and Leukemia Cancer Cells and Tcr-Activated Normal Human Cells By Dopamine D1r Agonists” (priority 2005, published 2008).

Key:
Format in all cases: cell-based
[1] = test system: Human cutaneous Sezary T-lymphoma cells (HuT-78); assay: Number of living cells counted by flow cytometry (FACSort) after D1R agonist; settings: 10^−3M-10^−6M, 3 days
Procedure: (§1) Human cutaneous Sezary T-lymphoma cells (HUT-78) were seeded in 96 well plates (0.5 ml per well of 0.5 million cells/ml) and A 77636 hydrochloride was added and diluted 1:00 into the wells at starting concentrations of 10^−1M-10^−4M, so that the final concentration range tested was 10^−3M-10^−6M. Afterwards, the microtiter plates were placed in an incubator (37° C., humidified incubator, 5% CO2) for 3 days. Then, the number of living cells was evaluated by flow cytometry (the cells were counted by FACsort for a fixed time length of 1 min, in which 100 microliter of each sample was tested).
as §1, with “68930” for “77636”
as §1, with “SKF 38393 hydrobromide” for “A 77636 hydrochloride”
Cell viability was tested afterwards. […]
(§2) Cell survival/death was evaluated 3 days later by counting the number of living cells, using flow cytometry.

[2] = test system: Human Burkitt's B-cell lymphoma (Raji) cells; assay: as above; settings: 10^−3M-10^−6M, 3 days
Procedure: (§3) Afterwards, the microtiter plates were placed in an incubator (37° C., humidified incubator, 5% CO2) for 3 days. Then, the number of living cells was evaluated by flow cytometry (the cells were counted by FACsort for a fixed time length of 1 min, in which 100 microliter of each sample was tested).
(§4) Cell viability was tested afterwards.

[3] = test system: Human T-cell leukemia (Jurkat) cells; assay: as above; settings: 10^−3M-10^−6M, 3 days
Procedure: as §3, with “tested). Of note, A 77636 hydrochloride is an orally-active D1R agonist, according to the manufacturer (Tocris).” for “tested).”
as §3
(§5) The experiment was designed to test the effect of exposing the cells to the D1R agonist for 1 min, 15 min, 1 hr or 72 hr. Thus, 1 min, or 15 min or 1 hr after the addition of the D1R agonist, the corresponding cells were transferred into tubes, centrifuged (1000 rpm for 10 min); and the supernatant was removed. […] Thus, its medium was not replaced, and these cells and remained as such in the incubator for 72 hr. At the end of the 72 hr incubation, the number of living cells was evaluated by flow cytometry (the cells were counted by FACsort for a fixed time length of 1 min, in which 100 microliter of each sample was tested).
as §4
(§6) For this purpose, the Jurkat T-cell leukemia line, the HuT-78 human T-lymphoma (cutaneous “Sezary” T-lymphoma) line, and the K-562 human Chronic-Myeloid Leukemia (CML) and Daudi Human B-lymphoma (Burkitt's lymphoma) lines were seeded in tissue culture wells (0.5 million cells/0.5 ml/well).
as §2

[4] = test system: resting normal human T-cells; assay: as above; settings: 10^−3M-10^−6M, 3 days
Procedure: as §3
FIGS. 31A and B are graphs showing that A 77636 hydrochloride kills much more TCR-activated (FIG. 31B) than resting normal (FIG. 31A) human T-cells. […] The cells were then transferred to the incubator for 72 hr incubation. At the end of the 72 hr incubation, the number of living cells in each well was evaluated by flow cytometry (the cells were counted by FACsort for a fixed time length of 1 min, in which 100 microliter of each sample was tested).
as §4

[5] = test system: Human chronic myelogenous leukemia cells (CML) (K-562); assay: as above; settings: for Cell death by number of living cells (FIGS. 22-24), in words: 10^−3M-10^−6M, 3 days; for No. of Cells: 1 × 10^−4M; for No. of Cells / Killing, in words (Table 6): 1 hour; for Killing, in words (Table 6): 10^−4 M
Procedure: as §1, with “chronic myelogenous leukemia” for “cutaneous Sezary T-lymphoma”, “(CML) (K-562)” for “(HUT-78)”
as §1, with “chronic myelogenous leukemia” for “cutaneous Sezary T-lymphoma”, “(CML) (K-562)” for “(HUT-78)”, “68930” for “77636”
as §1, with “chronic myelogenous leukemia” for “cutaneous Sezary T-lymphoma”, “(CML) (K-562)” for “(HUT-78)”, “SKF 38393 hydrobromide” for “A 77636 hydrochloride”
as §5, with “Human chronic myelogenous leukemia cells (CML) (K-562) were seeded in 96 well plates (0.5 ml per well of 0.5 million cells/ml) and A 77636 hydrochloride was added and diluted 1:00 into the wells, at a fixed starting concentration of 10^−2M, so that the final concentration tested was 10^−4M. The” for “The”, “min),” for “min);”
as §4, §6, §2
(§7) The effect of dopamine itself (that can of course activate all its D1R-5 receptors) was also tested. All of these molecules were tested at a similar concentration (10^−4 M). […] The specificity and restriction of the effect to the D1R is also seen in Tables 7 and 8.

[6] = test system: Human Burkitt's B-lymphoma cells (Daudi); assay: as above; settings: for Cell death by number of living cells (FIGS. 16-18), in words: 10^−3M-10^−6M, 3 days; for No. of Cells: 1 × 10^−4M; for No. of Cells / Killing, in words (Table 5): 1 hour; for Killing, in words (Table 5): 10^−4 M
Procedure: as §1, with “Burkitt's B-lymphoma” for “cutaneous Sezary T-lymphoma”, “(Daudi)” for “(HUT-78)”, “Afterwards, the microtiter plates were placed in an incubator (37° C., humidified incubator, 5% CO2) for 3 days.” left out
as §1, with “Burkitt's B-lymphoma” for “cutaneous Sezary T-lymphoma”, “(Daudi)” for “(HUT-78)”, “68930” for “77636”, “Afterwards, the microtiter plates were placed in an incubator (37° C., humidified incubator, 5% CO2) for 3 days.” left out
[…] Then, the number of living cells was evaluated by flow cytometry (the cells were counted by FACsort for a fixed time length of 1 min, in which 100 microliter of each sample was tested).
as §4, §7

[7] = test system: Human Sezary T-Cell Lymphoma (HuT 78) Cells; assay: Cell number, necrosis and apoptosis by Annexin V/PI flow cytometry; settings: 1 × 10^−4M, exposed for 1 hr; for % Necrotic Cells: Annexin V+ PI+; for % Apoptotic Cells: Annexin V+ PI−
Procedure: (§8) Measurement of cell death by flow cytometry and detection of phosphatidyl serine was performed using the IQ Products kit (R&D systems), according to the manufacturers instructions.
(§9) In detail: The Phosphatidyl Serine Detection kit provides a rapid and reliable method for the detection of apoptosis by flow cytometry. This method enables detection at the single-cell level, and also allows the distinction between apoptosis and necrosis.
(§10) During the early stages of apoptosis, phosphatidyl serine (PS) becomes exposed on the outside of the cell membrane. This early stage of apoptosis can be specifically detected by PS binding proteins (Annexin V).
(§11) During the early stages of apoptosis, the cell membrane is intact and the cells exclude propidium iodide (PI). Later, during the apoptosis process, the membrane becomes porous and PI becomes associated with DNA. The uptake of PI is an indication of necrosis.
as §7
(§12) Cancer death induced by selective D1R agonists occurs via necrosis. To study the mechanism by which the cancer cells die, due to their incubation with DR1 agonists, the phosphatidyl serine detection kit was used. This kit provides a rapid and reliable method for the detection of apoptosis by flow cytometry, enables detection at the single-cell level, and also allows the distinction between apoptosis and necrosis.
(§13) During the early stages of apoptosis, phosphatidyl serine (PS) becomes exposed on the outside of the cell membrane. This early stage of apoptosis can be specifically detected by PS binding proteins (Annexin V). During the early stages of apoptosis, the cell membrane is intact and the cells exclude propidium iodide (PI). Later, during the apoptosis process, the membrane becomes porous and PI becomes associated with DNA. The uptake of PI is an indication of necrosis. Thus, Annexin V^+ PI^− are considered cells that are undergoing apoptosis, while Annexin V^+ PI^+ are considered cells that are undergoing necrosis. Live cells are Annexin V^− PI^−.

[8] = test system: Human T-Cell Leukemia (Jurat) Cells; assay: as above; settings: 1 × 10^−4M, exposed for 1 hr; for % Necrotic Cells: Annexin V+ PI+; for % Apoptotic Cells: Annexin V+ PI−
Procedure: as §8, §9, §10, §11, §7, §12, §13

Structure (SMILES) | Cell death by number of living cells (FIGS. 13-15), in words [1] | Cell death by number of living cells (FIGS. 19-21), in words [2] | Cell death by number of living cells (FIGS. 10-12), in words [3] | Killing effect by number of living cells (FIGS. 25-27), in words [4] | Cell death by number of living cells (FIGS. 22-24), in words [5] | Cell death by number of living cells (FIGS. 16-18), in words [6] | No. of Cells [7] | % Necrotic Cells [7] [%] | % Apoptotic Cells [7] [%] | No. of Cells [8] | % Necrotic Cells [8] [%] | % Apoptotic Cells [8] [%] | No. of Cells [5] | Killing, in words (Table 6) [5] | No. of Cells [6] | Killing, in words (Table 5) [6]
Cl.NC[C@@H]1O[C@H](c2ccccc2)Cc2c1ccc(O)c2O (racemic) [A 68930 hydrochloride, cis-(±)-1-(aminomethyl)-3,4-dihydro-3-phenyl-1H-2-benzopyran-5,6-diol hydrochloride] | induces marked cell death | induces marked cell death | induces marked cell death | significantly milder killing effect | induces marked cell death | induces marked cell death | – | – | – | – | – | – | – | – | – | –
CCCN1CCC[C@@H]2Cc3n[nH]cc3C[C@H]21 [D2R Agonist, Quinpirole] | – | – | – | – | – | – | 23,880 | 21.97 | 12.00 | 7,395 | 7.65 | 1.38 | 27,360 | no such effect | 20,805 | no such effect
Br.Oc1cc2c(cc1O)C(c1ccccc1)CNCC2 (racemic) [SKF 38393 hydrobromide, (±)-1-phenyl-2,3,4,5-tetrahydro-(1H)-3-benzazepine-7,8-diol hydrobromide] | induces marked cell death | induces marked cell death | induces marked cell death | significantly milder killing effect | induces marked cell death | induces marked cell death | – | – | – | – | – | – | – | – | – | –
CCCN(CCC)C1CCc2ccc(O)cc2C1 (stereo not drawn) [D3R Agonist, 7-Hydroxy-DPAT] | – | – | – | – | – | – | 18,975 | 21.40 | 14.67 | 9,300 | 10.27 | 1.68 | 21,960 | no such effect | 18,330 | no such effect
NCCc1ccc(O)c(O)c1 [Dopamine] | – | – | – | – | – | – | 16,395 | 39.80 | 19.07 | 4,545 | 42.84 | 7.06 | 24,480 | not the CML | 5,325 | killed the B-lymphoma cells
